System: Primary human dermal fibroblast (HDF) cells
Experiment: Ferritin induction in HDF cells (ferritin and protein by ELISA)
Assay type: cell-based
Settings: Example 1; 5 μM in culture media, 18 hours; vs cells with no treatment
Protocol: Primary human dermal fibroblast (HDF) cells were cultured in Dulbecco's modified eagle medium (DMEM) with GlutaMAX™ and 10% Fetal Bovine Serum (FBS) and 1% Streptomycin (antibiotics). Before treatment, cells were seeded in a 12-well plate (1 ml culture media and surface area of the well is approximately 4.0 cm^2 per well) overnight. After washing twice with cold phosphate buffered saline (PBS), HDF cells were starved in 0.1% FBS for overnight. Subsequently, cells were treated with ferrous sulfate septahydrate (FeSO4·7H2O) at a final concentration of 5 μM for additional 18 hours. Cells with no treatment were used as a control. Cells were then washed with PBS and lysed. Levels of ferritin and protein were measured by using commercially available enzyme-linked immunosorbent assays (ELISA) kits and quantitated with standard curves constructed with human liver ferritin and human serum albumin as standards. The results were expressed as μg ferritin per mg protein and are show in FIG. 2.
The two iron oxides were premixed homogeneously in a 50% (v/v) of water and tertraethylene glycol and incubated at 3 mg/ml overnight at room temperature in a sodium acetate buffer (10 mM, pH 5.0), mimicking the pHs of acid rain or sweat. […] After the foregoing treatment, cells were collected and levels of ferritin and proteins in cells were measured and calculated as described in Example 1. […]

SMILES: O.O.O.O.O.O.O.O=S(=O)([O-])[O-].[Fe+2] [ferrous sulfate, ferrous sulfate septahydrate (FeSO4·7H2O)]
- increase in level of ferritin compared to the control: 570%

— patent US20220409521A1, “COMPOSITION FOR COSMETICS” (FE:I BEAUTY TECH, INC., priority 2021, published 2022)
